We go through 40 compounds from BindingDB's records for doi:10.7270/Q2X34VWJ (Nmmlsc, 2009).

This experiment deals with Ras-related protein Rab-7a (Canis lupus familiaris, UniProt P18067). The experiment is described as follows: Rab7 GTP binding inhibitors, further analogs, SAR follow-up, biochemical, additional analogs, wildtype, multiplex bead flow cytometry (AID 2036). On the technique in general: Flow cytometry measures light scatter and fluorescence of single cells or particles in a stream.

The mark [1] stands for this setting: inactive by the depositor's call.

SMILES strings stand for the structures.

Ras-related protein Rab-7a, sequence (P18067 whole entry): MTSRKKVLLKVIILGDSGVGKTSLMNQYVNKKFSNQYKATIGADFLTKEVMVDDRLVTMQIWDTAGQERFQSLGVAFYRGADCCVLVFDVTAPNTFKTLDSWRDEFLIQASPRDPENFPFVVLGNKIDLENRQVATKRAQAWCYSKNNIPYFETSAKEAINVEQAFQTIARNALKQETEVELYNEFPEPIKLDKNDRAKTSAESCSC

The compound `O=C(C#Cc1ccccc1)c1ccccc1` [UNM-0000306039] returned an EC50 under setting [1] of 30 µM.
Compound `O=[N+]([O-])c1ccc(C#Cc2ccccc2)cc1` showed an EC50 under setting [1] of 30 µM.
On to `O=C1Nc2c(Cl)cccc2C1=C1Nc2ccccc2C1=O`, for which the EC50 was 0.024 µM.
On to `O=C1Nc2ccccc2/C1=C1/Cc2ccccc2C1=O` [UNM-0000305763], for which the EC50 under setting [1] is 30 µM.
`O=C1N=c2c(F)cccc2=C1c1[nH]c2ccccc2c1NO` [7-fluoro-3-[3-(hydroxyamino)-1H-indol-2-yl]-2-indolone] yielded an EC50 of 30 µM.
Compound `O=C1Nc2ccccc2/C1=C1/Nc2ccccc2C1=O` [2-[(3Z)-2-oxo-2,3-dihydro-1H-indol-3-ylidene]-2,3-dihydro-1H-indol-3-one] showed an EC50 of 30 µM.
`COc1ccc2cc(CC(=O)O)ccc2c1` [2-(6-methoxynaphthalen-2-yl)ethanoic acid] yielded an EC50 under setting [1] of 30 µM.
`C[C@@H](C(=O)O)c1cccc(Oc2ccccc2)c1` [calcium;2-(3-phenoxyphenyl)propanoic acid;hydrate]: a half-maximal effect (EC50) was put at 30 µM.
Regarding `O=C(C#Cc1ccccc1)c1ccc(F)cc1` [UNM-0000306059], under setting [1], a half-maximal effect (EC50) was put at 30 µM.
For `O=C1Nc2cccc(Br)c2/C1=C1/Cc2ccccc2C1=O`, the EC50 under setting [1] is 30 µM.
Compound `O=C1Nc2c(Br)cccc2/C1=C1/Cc2ccccc2C1=O` [(3E)-7-bromo-3-(3-oxo-1H-inden-2-ylidene)-1H-indol-2-one] gave an EC50 under setting [1] of 30 µM.
Under setting [1], `O=C(C#Cc1ccccc1)c1ccc(Cl)cc1` [UNM-0000306055] showed an EC50 of 30 µM.
Same read-out and setting: as for `CC1=C(CC(=O)O)c2cc(F)ccc2/C1=C/c1ccc([S+](C)[O-])cc1` (stereo not given) [UNM-0000306136], the figure is 30 µM.
Under setting [1], `COc1cc(-c2c(C#N)c(N)n(S(=O)(=O)c3c(C(C)C)cc(C(C)C)cc3C(C)C)c2C(=O)c2ccccc2)cc(OC)c1OC` [2-azanyl-5-(phenylcarbonyl)-4-(3,4,5-trimethoxyphenyl)-1-[2,4,6-tri(propan-2-yl)phenyl]sulfonyl-pyrrole-3-carbonitrile] displayed an EC50 of 33.2 µM.
In the case of `O=C1Nc2c(F)cccc2C1=C1Nc2ccccc2C1=O`, the EC50 came out at 23.8 µM.
As to `COc1ccc(S(=O)(=O)n2c(N)c(C#N)c(-c3cncc(Br)c3)c2C(=O)c2ccccc2)cc1` [2-amino-5-benzoyl-4-(5-bromo-3-pyridinyl)-1-(4-methoxyphenyl)sulfonyl-3-pyrrolecarbonitrile], it took 8.24 µM to reach a half-maximal effect under setting [1] (EC50).
For `O=C1NC(=O)/C(=C2/C(=O)Nc3ccccc32)N1`, a half-maximal response (EC50) required 30 µM.
On to `O=C1N=c2ccccc2=C1c1[nH]c2ccccc2c1NO` [3-[3-(hydroxyamino)-1H-indol-2-yl]-2-indolone], for which it took 30 µM to reach a half-maximal effect (EC50).
As for `CC(C(=O)O)c1cccc(C(=O)c2ccccc2)c1` (stereo not given) [2-(3-benzoylphenyl)propanoic acid], a half-maximal response under setting [1] (EC50) required 30 µM.
Compound `O=C(C#Cc1ccccc1)c1ccccc1[N+](=O)[O-]` [UNM-0000306038] yielded an EC50 under setting [1] of 30 µM.
As for `COc1ccc(S(=O)(=O)n2c(N)c(C#N)c(-c3ccccc3)c2C(=O)c2ccc(Br)cc2)cc1`, a half-maximal response under setting [1] (EC50) required 30 µM.
Take `CC(=O)Oc1ccccc1C(=O)O` [2-(acetyloxy)benzoic acid]: under setting [1], it took 30 µM to reach a half-maximal effect (EC50).
Still for that read-out and setting: as for `COc1ccc(-c2c(C#N)c(N)n(S(C)(=O)=O)c2C(=O)c2ccccc2)cc1Br` [2-azanyl-4-(3-bromanyl-4-methoxy-phenyl)-1-methylsulfonyl-5-(phenylcarbonyl)pyrrole-3-carbonitrile], the figure is 30 µM.
The compound `O=C1Nc2c(Br)cccc2C1=C1Nc2ccccc2C1=O` returned an EC50 of 30 µM.
On the same count and under the same terms, next, `O=C1Nc2ccc(Br)cc2C1=C1Nc2ccccc2C1=O`: 30 µM.
`CCCCS(=O)(=O)n1c(N)c(C#N)c(-c2cc(OC)c(OC)c(OC)c2)c1C(=O)c1ccccc1` [2-amino-5-benzoyl-1-butylsulfonyl-4-(3,4,5-trimethoxyphenyl)-3-pyrrolecarbonitrile] gave an EC50 under setting [1] of 30 µM.
On to `O=C(C#Cc1ccccc1)c1cccnc1` [3-phenyl-1-pyridin-3-ylprop-2-yn-1-one], for which the response under setting [1] was half-maximal at 30 µM (EC50).
Compound `O=C1N=c2ccc(Br)cc2=C1c1[nH]c2ccccc2c1NO` [5-bromanyl-3-[3-(oxidanylamino)-1H-indol-2-yl]indol-2-one] yielded an EC50 of 30 µM.
With `CC(C)Cc1ccc([C@H](C)C(=O)O)cc1` [(S)-2-(4-Isobutyl-phenyl)-propionic acid], under setting [1], it took 4.78 µM to reach a half-maximal effect (EC50).
With `CSc1ccc(/C=C2/C(C)=C(CC(=O)O)c3cc(F)ccc32)cc1` [{6-Fluoro-2-methyl-3-[1-(4-methylsulfanyl-phenyl)-meth-(E)-ylidene]-3H-inden-1-yl}-acetic acid], the concentration for a half-maximal effect (EC50) under setting [1] is 41.2 µM.
On to `O=C1N=c2c(Cl)cccc2=C1c1[nH]c2ccccc2c1NO` [7-chloro-3-[3-(hydroxyamino)-1H-indol-2-yl]-2-indolone], for which the response was half-maximal at 30 µM (EC50).
For `COC(=O)c1ccc(C(=O)C#Cc2ccccc2)cc1` [4-(1-oxo-3-phenylprop-2-ynyl)benzoic acid methyl ester], under setting [1], a half-maximal effect (EC50) was put at 30 µM.
The same measure, in the same setting: as for `O=C(C#Cc1ccccc1)c1ccc(OC(F)(F)F)cc1`, the figure is 30 µM.
In turn, `N#Cc1ccc(C(=O)C#Cc2ccccc2)cc1` [4-(3-phenylprop-2-ynoyl)benzenecarbonitrile] returned an EC50 under setting [1] of 30 µM.
Regarding `N#Cc1c(-c2ccc(Cl)cc2)c(C(=O)c2ccccc2)n(S(=O)(=O)c2ccc([N+](=O)[O-])cc2)c1N` [UNM-0000305780], the EC50 under setting [1] is 30 µM.
Under setting [1], `COc1ccc(C(=O)C#Cc2ccccc2)cc1` [1-(4-methoxyphenyl)-3-phenyl-2-propyn-1-one] returned an EC50 of 30 µM.
`O=C1N=c2c(Br)cccc2=C1c1[nH]c2ccccc2c1NO` [7-bromanyl-3-[3-(oxidanylamino)-1H-indol-2-yl]indol-2-one] gave a concentration for a half-maximal effect (EC50) of 30 µM.
`O=C1NC(=S)N/C1=C1\C(=O)Nc2ccccc21` [(3Z)-3-(5-oxo-2-sulfanylideneimidazolidin-4-ylidene)-1H-indol-2-one] came in with a concentration for a half-maximal effect (EC50) of 13.4 µM.
Regarding `COc1ccc(S(=O)(=O)n2c(N)c(C#N)c(-c3cc(Br)c(OC)c(OC)c3)c2C(=O)c2ccccc2)cc1` [UNM-0000305782], the EC50 under setting [1] amounted to 30 µM.
As for `O=C(C#Cc1ccccc1)c1ccc([N+](=O)[O-])cc1` [1-(4-nitrophenyl)-3-phenyl-2-propyn-1-one], the EC50 under setting [1] was 30 µM.

Usually EC50 stands for the concentration that produces a half-maximal response.
